Measurements from patent US20080171737A1 (Wyeth, priority 2006, published 2008).
Where a name gives a salt, the structure may show the parent alone.

Biological target: T1, human hNET (Homo sapiens, UniProt P23975)
T1 construct: expressed in transfected cells; host or cells: MDCK-Net6 (MDCK cells stably transfected with hNET)
Test: Functional norepinephrine reuptake assay, Procedure B (6,000 cells/well)
Assay type: cell-based
Settings: MDCK-Net6 cells, 6,000 cells/well, 16 nM 3H-norepinephrine; read-out: Procedure B hNET uptake IC50
Summary of the method: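 MDCK cells stably expressing human NET, 6,000 cells/well, in HEPES-buffered saline pH 7.4 with ascorbic acid and 1 μM pargyline; compound preincubated 5 min at 37° C. ^3H norepinephrine uptake counted by scintillation; non-specific defined with 20 μM desipramine. IC50 from variable-slope sigmoidal nonlinear fit.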

T1 sequence (P23975 whole entry): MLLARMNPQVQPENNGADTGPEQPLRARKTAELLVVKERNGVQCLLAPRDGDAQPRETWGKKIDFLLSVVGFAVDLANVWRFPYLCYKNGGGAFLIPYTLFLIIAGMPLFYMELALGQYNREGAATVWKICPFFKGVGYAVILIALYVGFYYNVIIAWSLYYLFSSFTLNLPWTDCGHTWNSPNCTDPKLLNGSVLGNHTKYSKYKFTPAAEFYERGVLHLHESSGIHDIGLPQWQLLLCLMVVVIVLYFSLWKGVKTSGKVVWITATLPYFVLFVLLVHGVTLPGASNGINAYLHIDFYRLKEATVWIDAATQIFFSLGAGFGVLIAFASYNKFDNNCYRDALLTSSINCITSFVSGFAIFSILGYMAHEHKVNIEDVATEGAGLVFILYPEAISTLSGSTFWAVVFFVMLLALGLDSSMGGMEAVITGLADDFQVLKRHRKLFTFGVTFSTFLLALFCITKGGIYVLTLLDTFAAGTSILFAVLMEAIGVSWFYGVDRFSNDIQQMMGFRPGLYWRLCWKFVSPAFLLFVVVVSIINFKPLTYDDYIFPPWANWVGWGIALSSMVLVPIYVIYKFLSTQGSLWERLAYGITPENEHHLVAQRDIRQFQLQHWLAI

Compound | IC50
CNCCCC1Sc2ccccc2N(c2ccccc2)S1(=O)=O (stereo not shown) [Example 59, 3-(2,2-dioxido-1-phenyl-1H-2,4,1-benzodithiazin-3-yl)-N-methylpropan-1-amine Hydrochloride] | 122 nM
CNCCCC1Sc2ccccc2N(c2cccc(C)c2)S1(=O)=O (stereo not shown) [Example 60, N-methyl-3-[1-(3-methylphenyl)-2,2-dioxido-1H-2,4,1-benzodithiazin-3-yl]propan-1-amine Hydrochloride] | 465 nM
CNCCCC1Sc2ccccc2N(c2cccc(F)c2)S1(=O)=O (stereo not shown) [Example 61, 3-[1-(3-fluorophenyl)-2,2-dioxido-1H-2,4,1-benzodithiazin-3-yl]-N-methylpropan-1-amine hydrochloride] | 80.7 nM
CNCCCC1Sc2ccccc2N(c2cccc(OC)c2)S1(=O)=O (stereo not shown) [Example 62, 3-[1-(3-methoxyphenyl)-2,2-dioxido-1H-2,4,1-benzodithiazin-3-yl]-N-methylpropan-1-amine Hydrochloride] | 338 nM
CNCCCC1Sc2ccccc2N(c2ccc(C)cc2)S1(=O)=O (stereo not shown) [Example 63, N-methyl-3-[1-(4-methylphenyl)-2,2-dioxido-1H-2,4,1-benzodithiazin-3-yl]propan-1-amine Hydrochloride] | 156 nM
CNCCCC1Sc2ccccc2N(c2ccc(F)cc2)S1(=O)=O (stereo not shown) [Example 64, 3-[1-(4-fluorophenyl)-2,2-dioxido-1H-2,4,1-benzodithiazin-3-yl]-N-methylpropan-1-amine Hydrochloride] | 1000 nM
CNCCCC1Sc2ccccc2N(c2cccc(Cl)c2)S1(=O)=O (stereo not shown) [Example 66, 3-[1-(3-chlorophenyl)-2,2-dioxido-1H-2,4,1-benzodithiazin-3-yl]-N-methylpropan-1-amine Hydrochloride] | 2020 nM
CNCCCC1Sc2ccccc2N(c2ccc(Cl)cc2)S1(=O)=O (stereo not shown) [Example 67, 3-[1-(4-chlorophenyl)-2,2-dioxido-1H-2,4,1-benzodithiazin-3-yl]-N-methylpropan-1-amine Hydrochloride] | 1500 nM
CNCCCC1Sc2ccccc2N(c2ccc(F)c(Cl)c2)S1(=O)=O (stereo not shown) [Example 68, 3-[1-(3-chloro-4-fluorophenyl)-2,2-dioxido-1H-2,4,1-benzodithiazin-3-yl]-N-methylpropan-1-amine Hydrochloride] | 471 nM
CNCCCC1Oc2cc3ccccc3cc2N(c2ccc(C)cc2)S1(=O)=O (stereo not shown) [Example 69, N-methyl-3-[1-(4-methylphenyl)-2,2-dioxido-1H-naphtho[2,3-e][1,3,4]oxathiazin-3-yl]propan-1-amine Hydrochloride] | 733 nM
CNCCCC1Oc2cc3ccccc3cc2N(c2cccc(F)c2)S1(=O)=O (stereo not shown) [Example 70, 3-[1-(3-fluorophenyl)-2,2-dioxido-1H-naphtho[2,3-e][1,3,4]oxathiazin-3-yl]-N-methylpropan-1-amine Hydrochloride] | 119 nM
CNCCCC1Cc2ccccc2N(c2ccccc2F)S1(=O)=O (stereo not shown) [Example 73, 3-[1-(2-fluorophenyl)-2,2-dioxido-3,4-dihydro-1H-2,1-benzothiazin-3-yl]-N-methylpropan-1-amine Hydrochloride] | 17.7 nM
O=S1(=O)C(CCCN2CCNCC2)Oc2ccccc2N1c1ccccc1 (stereo not shown) [Example 76, 1-phenyl-3-(3-piperazin-1-ylpropyl)-1H-4,2,1-benzoxathiazine2,2-dioxide Dihydrochloride] | 5050 nM
CN(C)CCCC1Oc2ccccc2N(c2ccccc2)S1(=O)=O (stereo not shown) [Example 80, 3-(2,2-dioxido-1-phenyl-1H-4,2,1-benzoxathiazin-3-yl)-N,N-dimethylpropan-1-amine hydrochloride] | 4160 nM
CN(CCCC1Oc2ccccc2N(c2ccccc2)S1(=O)=O)C1CCCCC1 (stereo not shown) [Example 85, N-[3-(2,2-dioxido-1-phenyl-1H-4,2,1-benzoxathiazin-3-yl)propyl]-N-methylcyclo hexanamine Hydrochloride] | 1920 nM
CNCCCC1Cc2ccccc2N(c2ccccc2F)S1(=O)=O (stereo not shown) [Example 89, 3-[1-(2-fluorophenyl)-2,2-dioxido-3,4-dihydro-1H-2,1-benzothiazin-3-yl]-N-methylpropan-1-amine] | 18 nM
CNCCCC1Oc2ccccc2N(c2ccccc2F)S1(=O)=O (stereo not shown) [Example 92] | 19 nM
CNCCCC1Cc2cc(F)ccc2N(c2ccccc2F)S1(=O)=O (stereo not shown) [Example 108, 3-[6-fluoro-1-(2-fluorophenyl)-2,2-dioxido-3,4-dihydro-1H-2,1-benzothiazin-3-yl]-N-methylpropan-1-amine] | 24 nM
CNCCCC1Oc2cc(F)ccc2N(c2ccccc2F)S1(=O)=O (stereo not shown) [Example 129, 3-[6-fluoro-1-(2-fluorophenyl)-2,2-dioxido-1H-4,2,1-benzoxathiazin-3-yl]-N-methylpropan-1-amine hydrochloride] | 95 nM
C=C(CNC)CC1Cc2ccccc2N(c2ccccc2)S1(=O)=O (stereo not shown) [Example 132, 2-[(2,2-dioxido-1-phenyl-3,4-dihydro-1H-2,1-benzothiazin-3-yl)methyl]-N-methylprop-2-en-1-amine] | 16 nM
CN(C)CC1Oc2ccccc2N(c2ccccc2)S1(=O)=O (stereo not shown) [Example 134, 1-(2,2-dioxido-1-phenyl-1H-4,2,1-benzoxathiazin-3-yl)-N,N-dimethylmethanamine] | 788 nM
O=S1(=O)C(CN2CCNCC2)Oc2ccccc2N1c1ccccc1 (stereo not shown) [Example 135, 1-phenyl-3-(piperazin-1-ylmethyl)-1H-4,2,1-benzoxathiazine 2,2-dioxide] | 165 nM
CCNCC1Oc2ccccc2N(c2ccccc2)S1(=O)=O (stereo not shown) [Example 136, N-[(2,2-dioxido-1-phenyl-1H-4,2,1-benzoxathiazin-3-yl)methyl]ethanamine] | 1360 nM
NCCNCC1Oc2ccccc2N(c2ccccc2)S1(=O)=O (stereo not shown) [Example 137, N-[(2,2-dioxido-1-phenyl-1H-4,2,1-benzoxathiazin-3-yl)methyl]ethane-1,2-diamine] | 193 nM
CN(C)CCNCC1Oc2ccccc2N(c2ccccc2)S1(=O)=O (stereo not shown) [Example 138, N′-[(2,2-dioxido-1-phenyl-1H-4,2,1-benzoxathiazin-3-yl)methyl]-N,N-dimethylethane-1,2-diamine] | 3750 nM
CNCCN(C)CC1Oc2ccccc2N(c2ccccc2)S1(=O)=O (stereo not shown) [Example 139, N-[(2,2-dioxido-1-phenyl-1H-4,2,1-benzoxathiazin-3-yl)methyl]-N,N′-dimethylethane-1,2-diamine] | 644 nM
CN(C)CCN(C)CC1Oc2ccccc2N(c2ccccc2)S1(=O)=O (stereo not shown) [Example 140, N-[(2,2-dioxido-1-phenyl-1H-4,2,1-benzoxathiazin-3-yl)methyl]-N,N′,N′-trimethylethane-1,2-diamine] | 4320 nM
CC1CN(CC2Oc3ccccc3N(c3ccccc3)S2(=O)=O)CC(C)N1 (stereo not shown) [Example 142, 3-[(3,5-dimethylpiperazin-1-yl)methyl]-1-phenyl-1H-4,2,1-benzoxathiazine 2,2-dioxide] | 1150 nM
O=S1(=O)C(CN2CC3CC2CN3)Oc2ccccc2N1c1ccccc1 (stereo not shown) [Example 143, 3-(2,5-diazabicyclo[2.2.1]hept-2-ylmethyl)-1-phenyl-1H-4,2,1-benzoxathiazine 2,2-dioxide] | 231 nM

Same assay, conditions: MDCK-Net6 cells, 6,000 cells/well; Conc 6000 nM (6 μM); hydrochloride

Compound | Procedure B hNET uptake (% inhibition)
CN1CCN(CCC2Oc3ccccc3N(c3ccccc3)S2(=O)=O)CC1 (stereo not shown) [Example 87, 3-[2-(4-Methyl-piperazin-1-yl)-ethyl]-1-phenyl-1H-benzo[1,3,4]oxathiazine 2,2-dioxide hydrochloride] | 35%

Same assay, conditions: MDCK-Net6 cells, 6,000 cells/well; Conc 6000 nM (6 μM); read-out: Procedure B hNET uptake (% inhibition)

Compound | inhibition at 6 µM
CNCCCC1Sc2ccccc2N(c2ccc(OC)cc2)S1(=O)=O (stereo not shown) [Example 65, 3-[1-(4-methoxyphenyl)-2,2-dioxido-1H-2,4,1-benzodithiazin-3-yl]-N-methylpropan-1-amine hydrochloride] | 58%
O=S1(=O)C(CCN2CCCNCC2)Oc2ccccc2N1c1ccccc1 (stereo not shown) [Example 77, 3-[2-(1,4-diazepan-1-yl)ethyl]-1-phenyl-1H-4,2,1-benzoxathiazine-2,2-dioxide Dihydrochloride] | 33%
O=S1(=O)C(CCN2CCCCC2)Oc2ccccc2N1c1ccccc1 (stereo not shown) [Example 78, 1-phenyl-3-(2-piperidin-1-ylethyl)-1H-4,2,1-benzoxathiazine 2,2-dioxide hydrochloride] | 45%
CC1CN(CCC2Oc3ccccc3N(c3ccccc3)S2(=O)=O)CC(C)N1 (stereo not shown) [Example 79, 3-[2-(3,5-dimethylpiperazin-1-yl)ethyl]-1-phenyl-1H-4,2,1-benzoxathiazine 2,2-dioxide hydrochloride] | 21%
CCN(C)CCCC1Oc2ccccc2N(c2ccccc2)S1(=O)=O (stereo not shown) [Example 81, 3-(2,2-dioxido-1-phenyl-1H-4,2,1-benzoxathiazin-3-yl)-N-ethyl-N-methylpropan-1-amine hydrochloride] | 27%
CCN(CC)CCCC1Oc2ccccc2N(c2ccccc2)S1(=O)=O (stereo not shown) [Example 82, 3-(2,2-dioxido-1-phenyl-1H-4,2,1-benzoxathiazin-3-yl)-N,N-diethylpropan-1-amine hydrochloride] | 47%
CCN(CCO)CCCC1Oc2ccccc2N(c2ccccc2)S1(=O)=O (stereo not shown) [Example 83, 2-{[3-(2,2-dioxido-1-phenyl-1H-4,2,1-benzoxathiazin-3-yl)propyl](ethyl)amino}ethanol hydrochloride] | 41%
CC(C)N(C)CCCC1Oc2ccccc2N(c2ccccc2)S1(=O)=O (stereo not shown) [Example 84, 3-(2,2-dioxido-1-phenyl-1H-4,2,1-benzoxathiazin-3-yl)-N-isopropyl-N-methylpropan-1-amine Hydrochloride] | 27%
CN(CCCC1Oc2ccccc2N(c2ccccc2)S1(=O)=O)C1CCCCC1 (stereo not shown) [Example 85, N-[3-(2,2-dioxido-1-phenyl-1H-4,2,1-benzoxathiazin-3-yl)propyl]-N-methylcyclo hexanamine Hydrochloride] | 62%
CN1CCN(CC2Oc3ccccc3N(c3ccccc3)S2(=O)=O)CC1 (stereo not shown) [Example 141, 3-[(4-methylpiperazin-1-yl)methyl]-1-phenyl-1H-4,2,1-benzoxathiazine 2,2-dioxide] | 30%
